From paper PMC10667816, “A Cell‐Penetrant Peptide Disrupting the Transcription Factor CP2c Complexes Induces Cancer‐Specific Synthetic Lethality” (Advanced Science, 2023)
*1 amine or outer side, *2 acyl side, *3 side chain or, on linkers, in order; H or OH if unused. Where a SMILES comes first, the peptide text is derived from it. Side-chain parts run from the residue outwards. The star is where a group is joined. γGlu = O=C(O)[C@H](CCC(=O)[*:2])N[*:1]; Palmitoyl = CCCCCCCCCCCCCCCC(=O)*

Assays:
[1] = In vivo pharmacokinetics test; details: plasma; male CD‐1 (ICR) mouse, single intravenous 5 mg kg^−1, sampled 0.033–48 h, peripheral blood, noncompartmental analysis (Phoenix WinNonlin 6.3)
Procedure: A pharmacokinetics study was conducted at WuXiAppTec., Ltd. In this study, male CD‐1 (ICR) mouse was given a single intravenous injection of 5 mg kg^−1 of ACP52CGK. Blood samples were collected prior to dosing on day 0 and at various time points, including 0.033, 0.083, 0.25, 0.5, 1, 2, 6, 12, 24, and 48 h after dosing. The data collected from these samples were used to calculate pharmacokinetic parameters using the IV‐noncompartmental analysis model 201 in Phoenix WinNonlin version 6.3.
Figure S23. Pharmacokinetics analysis of ACP52CGK
A) PK parameters of ACP52CGK in CD-1(ICR) mice, calculated using the noncompartmental analysis
model 201 of Phoenix WinNonlin version 6.3. B) Mean plasma concentration of ACP52CGK at 0.033,

CP2c complexes = CP2c complexes (Homo sapiens, UniProt Q12800); assay: In vitro IP and pulldown assays of CP2c complexes; assay type: biochemical; details: regardless of the presence of probe DNA
Sequence of CP2c complexes (Q12800 whole entry, one chain of several): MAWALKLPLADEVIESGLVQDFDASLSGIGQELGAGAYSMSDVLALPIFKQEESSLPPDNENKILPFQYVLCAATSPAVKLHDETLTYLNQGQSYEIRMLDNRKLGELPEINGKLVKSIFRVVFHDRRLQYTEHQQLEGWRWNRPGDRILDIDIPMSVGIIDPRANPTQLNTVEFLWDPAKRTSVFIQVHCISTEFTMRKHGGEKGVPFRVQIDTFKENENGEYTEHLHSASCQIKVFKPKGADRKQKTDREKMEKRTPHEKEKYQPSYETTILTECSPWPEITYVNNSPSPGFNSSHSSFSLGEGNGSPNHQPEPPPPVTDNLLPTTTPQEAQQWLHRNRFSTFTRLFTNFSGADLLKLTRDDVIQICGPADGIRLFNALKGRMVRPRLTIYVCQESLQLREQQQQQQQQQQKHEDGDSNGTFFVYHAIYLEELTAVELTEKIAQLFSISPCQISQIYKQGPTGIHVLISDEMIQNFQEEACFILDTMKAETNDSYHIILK
Procedure: Cells were lysed with lysis buffer (50 mM Tris‐HCl, pH 7.4, 150 mM NaCl, 1 mM EDTA, 0.1% triton X‐100, and 1 mM PMSF) with freshly added 1 mM DTT and a protease inhibitor cocktail. Input samples (10% of whole lysate) were saved from each lysate for WB analysis. For immunoprecipitation, precleared extracts were incubated overnight at 4 °C with 10 µL Protein A/G agarose beads, pre‐incubated with 2 µg of the primary antibodies (Table S4, Supporting Information). The immune complexes were washed 3 times with lysis buffer, and bound proteins were eluted with 2X bed volume of 0.2 M glycine buffer, followed by neutralization with an equal volume of 1 M Tris‐HCl, pH 8.0. For Flag tag immunoprecipitation, precleared extracts were incubated with 2 µL of Flag‐M2 beads (Sigma–Aldrich, A2220) by rotating overnight at 4 °C. The immune complexes were washed 3 times with lysis buffer, bound proteins were eluted with 100 µg mL^−1 Flag peptide (Sigma–Aldrich, F4799). Precipitated proteins were analyzed using western blot.
Biotinylated‐DNA fragments or ‐peptides and GST‐fused CP2c, whole‐ or nuclear‐ extracts of MDA‐MB‐231 cells were used for the analyze the interaction of peptide or DNA with CP2c. Nuclear extracts were extracted by the method described elsewhere.^[ [14] ^] […] The radioactivity of the eluted probe was measured by scintillation counting. […]

[2] = tested on: α‐globin mRNA expression in iMEL cells; assay: Transcription inhibition of α‐globin mRNA expression; assay type: cell-based, murine; details: α‐globin (Hba-a2) mRNA, 36 h after ACP52C treatment, two independent biological replicates, read-out: TI50 (the source's name)
Procedure: To quantify mRNA expression of the gene of interest, cells were harvested, and total cellular RNA was extracted using Qiazol reagent (Qiagen, 79306). Purified RNA was dissolved in Diethyl pyrocarbonate (DEPC) water. Reverse transcription was performed using a High‐Capacity cDNA reverse transcription kit (Toyobo, FSQ‐201) in the presence of 400 ng of total RNA and 10 pmol random hexamer. PCR was performed using rTaq Plus 5X PCR master mix (Elpis‐Biotech, EBT‐1319) and the SYBR green Master Mix Kit. Amplifications were performed using a Light cycler 1.5 real‐time PCR system.^[ [43] ^] The relative mRNA expression levels were determined using the 2(−ΔCt) method, with GAPDH transcript levels serving as an internal control. Errors were calculated from at least two independent experiments. Oligonucleotide primers used in RT–qPCR are listed in Table S2 (Supporting Information).
Figure S13. The relationship between ACP52C-mediated growth inhibition and transcriptional
cell differentiation in vitro.
at 36 h after ACP52C treatment of various doses.
biological replicates. […] C)
expression in uMEL and iMEL c ells. D-G) Anticancer activity of ACP52C correlates with cellular
Modulation of GI50 values in cancer cells by
ACP52C treatment. […] Duplicated data
are expressed as means ± SD.

[3] = tested on: human stem cells (hMSCs and hESCs), mouse embryonic fibroblasts (MEFs), and human non‐transformed cell lines (BEAS‐2B and MCF10A); assay: MTT growth inhibition in stem and non‐transformed cells; assay type: cell-based; details: concentration of 1 mM
Procedure: Various cell lines were treated with peptides, either alone or in combination with the CASP2 inhibitor (Ac‐VDVAD‐CHO; Enzo ALX‐260‐058‐M001) at various concentrations for 4 days. Cell viability was assessed on day 2 or day 4 using MTT (3‐(4,5‐dimethylthiazol‐2‐yl)‐2,5‐diphenyltetrazolium bromide; Sigma–Aldrich, M2128) assay. In brief, fresh cells were seeded in flat‐bottomed 96‐well tissue culture plates at appropriate concentrations for each cell line per well using complete culture medium. The cells were incubated in 100 µL of culture medium containing various concentration of chemicals or peptides at 37 °C for 0 to 96 h. A solution of MTT (5 mg mL^−1) was added to the culture medium, and the cells were further incubated at 37 °C for an additional 3 h. The MTT medium was then removed, and the formazan crystals were dissolved in DMSO (100 µL per well). The formazan concentration was measured spectrophotometrically at 490 nm using a Varioskan Flash Spectral Scanning Multimode Reader (Thermo Scientific Korea). Nonlinear regression curves for growth inhibition and GI50 values for each cell line were estimated from independent replicates using the Prism (version 6) software (GraphPad Software Inc.)

CCCCCCCCCCCCCCCC(=O)N[C@@H](CCC(=O)NCCCC[C@H](NC(=O)CNC(=O)CNC(=O)[C@@H]1CCCN1C(=O)[C@H](CCCNC(=N)N)NC(=O)[C@H](CCC(N)=O)NC(=O)[C@@H]1CCCN1C(=O)[C@H](Cc1ccc(O)cc1)NC(=O)[C@H](CC(N)=O)NC(C)=O)C(=O)NCC(=O)NCC(=O)N[C@@H](CS)C(=O)N[C@@H](CCCNC(=N)N)C(=O)NCC(=O)N[C@@H](CC(=O)O)C(=O)N[C@@H](CCCCN)C(=O)NCC(=O)N1CCC[C@H]1C(=O)N[C@@H](CC(=O)O)C(=O)N[C@@H](CS)C(N)=O)C(=O)O [ACP52CGK] (Ac-NYPQRPGGK([γGlu-Palmitoyl])GGCRGDKGPDC-NH2)
half-life [1]: ~5.26 h

CCOc1ccccc1C1CC(=O)Nc2cc3c(cc21)OCO3 (stereo not shown) [FQI1, Factor Quinolinone Inhibitor 1, reference compound]
dissociation of CP2c complexes (CP2c complexes): only slight perturbation of CP2c complexes

CC(=O)N[C@@H](CC(N)=O)C(=O)N[C@@H](Cc1ccc(O)cc1)C(=O)N1CCC[C@H]1C(=O)N[C@@H](CCC(N)=O)C(=O)N[C@@H](CCCNC(=N)N)C(=O)N1CCC[C@H]1C(=O)N[C@@H](CS)C(=O)N[C@@H](CCCNC(=N)N)C(=O)NCC(=O)N[C@@H](CC(=O)O)C(=O)N[C@@H](CCCCN)C(=O)NCC(=O)N1CCC[C@H]1C(=O)N[C@@H](CC(=O)O)C(=O)N[C@@H](CS)C(N)=O [ACP52C] (Ac-NYPQRPCRGDKGPDC-NH2)
IC50 [2]: ~15 µM
growth inhibition [3]: minimal to zero growth inhibition
